Experiment [1] has as its target T1, GPR43 (Homo sapiens, UniProt O15552).
T1 construct: expressed in transfected cells
T1 sequence (O15552 1-330): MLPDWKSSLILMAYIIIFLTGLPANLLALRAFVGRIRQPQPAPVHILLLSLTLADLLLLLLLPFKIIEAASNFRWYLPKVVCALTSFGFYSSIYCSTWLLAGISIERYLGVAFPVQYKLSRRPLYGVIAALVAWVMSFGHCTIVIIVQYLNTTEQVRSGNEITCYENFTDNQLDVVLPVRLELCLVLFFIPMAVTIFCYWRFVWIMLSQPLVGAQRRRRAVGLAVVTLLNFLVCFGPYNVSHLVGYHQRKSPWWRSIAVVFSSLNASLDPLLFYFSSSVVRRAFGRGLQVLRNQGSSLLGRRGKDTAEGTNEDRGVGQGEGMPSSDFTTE
Kind of experiment: Calcium mobilization assay without probenecid. The class given is cell-based. The conditions noted are these: GPR43 stably expressing cells, triggered with sodium acetate at EC80, read-out: GPR43 assay without probenicid IC50. Here is the method: The following assay can be used for determination of GPR43 activation. The assay measures intracellular calcium release induced by activation of GPR43. On day 1, GPR43 stably expressing cells were detached with mild trypsinization (Trypsin, 0.25% with EDTA 4Na, 5× diluted in PBS) centrifuged at 1000 rpm for 5 min and resuspended at 6.000 cells/25 μL medium (DMEM supplemented with 10% FBS, 10 μg/mL puromycin and 1% Pen/Strep). The cells were distributed in poly-D-lysine coated 384 well plates (black with clear bottom, 25 μL/well) and incubated overnight at 37° C. 10% CO2. On day 2, 25 μL of a fluorescent Ca^2+ indicator (Calcium 4 assay; Molecular Devices) was added on top of the cells and incubated for 2 h at 37° C. Subsequently, compounds at increasing concentration (10 μL/well) were added to the plate and incubated for 15 min at 37° C. Finally the cells were triggered with sodium acetate at EC80 concentration (concentration which gives 80% of the activity of the GPR43) and the Ca-flux was measured simultaneously to the trigger injection on a fluorescence plate reader (FlexStation3), this measures the antagonist activity of the compounds. To measure agonist activity of the compounds, compound was added to the well and the Ca-flux was measured simultaneously to the injection of compound.

Experiment [2] deals with T1, GPR43. The experiment in a line: Calcium mobilization assay with probenecid. The class given is cell-based. The conditions noted are these: GPR43 stably expressing cells; triggered with sodium acetate at EC80; 2.5 mM probenecid; read-out: GPR43 assay with probenicid IC50. The method, boiled down: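 Cells stably expressing GPR43 plated overnight at 37 °C, then loaded 2 h with Calcium 4 dye plus 2.5 mM probenecid. […]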
On the technique in general: Calcium assays in cells follow changes in intracellular calcium, usually with a dye or a luminescent sensor.

For the compound `Cc1cc(C)cc(CC(=O)N2CCC2(C)C(=O)N(CC(=O)NS(=O)(=O)C(F)(F)F)Cc2ccc(Cl)cc2)c1` (stereo not drawn) [Compound 94, 1-[2-(3,5-Dimethyl-phenyl)-acetyl]-2-methyl-azetidine-2-carboxylic acid (4-chloro-benzyl)-(2-oxo-2-trifluoromethanesulfonylamino-ethyl)-amide], the IC50 on GPR43 [1] and on GPR43 [2] was above 1000 nM throughout.
Regarding `CC(=O)NCCN(Cc1ccc(Cl)cc1)C(=O)C1(C)CCN1C(=O)Cc1cc(C)cc(C)c1` (stereo not drawn) [Compound 101, 1-[2-(3,5-Dimethyl-phenyl)-acetyl]-2-methyl-azetidine-2-carboxylic acid (2-acetylamino-ethyl)-(4-chloro-benzyl)-amide], the IC50 on GPR43 [1] and on GPR43 [2] was 101 to 500 nM throughout.
Regarding `COc1ccc(-c2ccc(CC(=O)N3CCC3(C)C(=O)N(C)Cc3ccc(Cl)cc3)cc2)cc1` (stereo not drawn) [Compound 23, 1-[2-(4′-Methoxy-biphenyl-4-yl)-acetyl]-2-methyl-azetidine-2-carboxylic acid (4-chloro-benzyl)-methyl-amide], the 50% inhibitory concentration (IC50) at GPR43 [1] and on GPR43 [2] was above 1000 nM each time.
On to `COC(=O)CCN(Cc1ccc(Cl)cc1)C(=O)C1(C)CCN1C(=O)Cc1csc2ccccc12` (stereo not drawn) [Compound 86, 3-[[1-(2-Benzo[b]thiophen-3-yl-acetyl)-2-methyl-azetidine-2-carbonyl]-(4-chloro-benzyl)-amino]-propionic acid methyl ester], for which the figures for the half-inhibitory concentration (IC50) on GPR43 [1] and on GPR43 [2] were 101 to 500 nM and 0.01 to 100 nM, respectively.
`CN(Cc1ccc(Cl)cc1)C(=O)C1(C)CCN1C(=O)Cc1ccc(Cl)c(Cl)c1` (stereo not drawn) [Compound 18, 1-[2-(3,4-Dichloro-phenyl)-acetyl]-2-methyl-azetidine-2-carboxylic acid (4-chloro-benzyl)-methyl-amide]: the IC50 at GPR43 [1] and on GPR43 [2] was above 1000 nM each time.
As for `Cc1cc(C)cc(CC(=O)N2CCC2(C)C(=O)N(Cc2ccc(Cl)cc2)C2CC2)c1` (stereo not drawn) [Compound 46, 1-[2-(3,5-Dimethyl-phenyl)-acetyl]-2-methyl-azetidine-2-carboxylic acid (4-chloro-benzyl)-cyclopropyl-amide], the concentration for half-maximal inhibition (IC50) at GPR43 [1] and at GPR43 [2] was above 1000 nM in each case.
As to `CN(Cc1ccc(Cl)cc1)C(=O)C1(C)CCN1C(=O)Cc1cccc(Cl)c1` (stereo not drawn) [Compound 10, 1-[2-(3-Chloro-phenyl)-acetyl]-2-methyl-azetidine-2-carboxylic acid (4-chloro-benzyl)-methyl-amide], the concentration for half-maximal inhibition (IC50) on GPR43 [1] and at GPR43 [2] was above 1000 nM in each case.
For `COc1cccc(-c2ccc(CC(=O)N3CCC3(C)C(=O)N(C)Cc3ccc(Cl)cc3)cc2)c1` (stereo not drawn) [Compound 38, 1-[2-(3′-Methoxy-biphenyl-4-yl)-acetyl]-2-methyl-azetidine-2-carboxylic acid (4-chloro-benzyl)-methyl-amide], the half-maximal inhibitory concentration (IC50) at GPR43 [1] and at GPR43 [2] was above 1000 nM throughout.
For `CC1(C(=O)N(CCCc2nnn[nH]2)Cc2ccc(Cl)cc2)CCN1C(=O)Cc1csc2ccccc12` (stereo not drawn) [Compound 100, 1-(2-Benzo[b]thiophen-3-yl-acetyl)-2-methyl-azetidine-2-carboxylic acid (4-chloro-benzyl)-[3-(1H-tetrazol-5-yl)-propyl]-amide], the half-inhibitory concentration (IC50) at GPR43 [1] and at GPR43 [2] was 0.01 to 100 nM in each case.
In the case of `CN(Cc1ccc(Cl)cc1)C(=O)C1(C)CCN1C(=O)Cc1ccc(-c2cccc(Cl)c2)cc1` (stereo not drawn) [Compound 21, 1-[2-(3′-Chloro-biphenyl-4-yl)-acetyl]-2-methyl-azetidine-2-carboxylic acid (4-chloro-benzyl)-methyl-amide], the IC50 at GPR43 [1] and at GPR43 [2] was above 1000 nM throughout.
Turning to `CN(Cc1ccc(Cl)cc1)C(=O)C1(C)CCN1C(=O)Cc1cn(C)c2ccccc12` (stereo not drawn) [Compound 91, 2-Methyl-1-[2-(1-methyl-1H-indol-3-yl)-acetyl]-azetidine-2-carboxylic acid (4-chloro-benzyl)-methyl-amide], the half-maximal inhibitory concentration (IC50) at GPR43 [1] and on GPR43 [2] was above 1000 nM in each case.
Take `CC1(C(=O)N(CC(=O)O)Cc2cccc(Cl)c2)CCN1C(=O)Cc1csc2ccccc12` (stereo not drawn) [Compound 66, [[1-(2-Benzo[b]thiophen-3-yl-acetyl)-2-methyl-azetidine-2-carbonyl]-(3-chloro-benzyl)-amino]-acetic acid]: the IC50 fell in the range of 101 to 500 nM on GPR43 [1] and 501 to 1000 nM on GPR43 [2].
For `Cc1cc(C)cc(CC(=O)N2CCC2(C)C(=O)N(CCC#N)Cc2ccc(Cl)cc2)c1` (stereo not drawn) [Compound 77, 1-[2-(3,5-Dimethyl-phenyl)-acetyl]-2-methyl-azetidine-2-carboxylic acid (4-chloro-benzyl)-(2-cyano-ethyl)-amide], the IC50 on GPR43 [1] is above 1000 nM; at GPR43 [2], 101 to 500 nM.
Turning to `CC1(C(=O)NCc2ccc(Cl)cc2)CCN1C(=O)Cc1csc2ccccc12` (stereo not drawn) [Compound 57, 1-(2-Benzo[b]thiophen-3-yl-acetyl)-2-methyl-azetidine-2-carboxylic acid 4-chloro-benzylamide], the IC50 at GPR43 [1] and at GPR43 [2] was above 1000 nM each time.
For the compound `CC1(C(=O)Nc2ccc(Cl)cc2)CCN1C(=O)Cc1ccc(Cl)cc1Cl` (stereo not drawn) [Compound 4, 1-[2-(2,4-Dichloro-phenyl)-acetyl]-2-methyl-azetidine-2-carboxylic acid (4-chloro-phenyl)-amide], the IC50 on GPR43 [1] and at GPR43 [2] was above 1000 nM in each case.
As for `CN(Cc1ccc(Cl)cc1)C(=O)C1(C)CCN1C(=O)Cc1cccc(-c2cccc(Cl)c2)c1` (stereo not drawn) [Compound 29, 1-[2-(3′-Chloro-biphenyl-3-yl)-acetyl]-2-methyl-azetidine-2-carboxylic acid (4-chloro-benzyl)-methyl-amide], the IC50 at GPR43 [1] and on GPR43 [2] was above 1000 nM in each case.
For the compound `Cc1cc(C)cc(CC(=O)N2CCC2(C)C(=O)N(CCNS(C)(=O)=O)Cc2ccc(Cl)cc2)c1` (stereo not drawn) [Compound 102, 1-[2-(3,5-Dimethyl-phenyl)-acetyl]-2-methyl-azetidine-2-carboxylic acid (4-chloro-benzyl)-(2-methanesulfonylamino-ethyl)-amide], the IC50 at GPR43 [1] lay in the range of 501 to 1000 nM; at GPR43 [2] it was 101 to 500 nM.
Take `Cc1cc(C)cc(CC(=O)N2CC[C@]2(C)C(=O)N(CC(=O)O)Cc2ccc(Cl)cc2)c1` [Compound 82, ((4-Chloro-benzyl)-{(R)-1-[2-(3,5-dimethyl-phenyl)-acetyl]-2-methyl-azetidine-2-carbonyl}-amino)-acetic acid]: the concentration for half-maximal inhibition (IC50) at GPR43 [1] and at GPR43 [2] was 101 to 500 nM each time.
As to `Cc1c(C(=O)N2CCC2(C)C(=O)N(C)Cc2ccc(Cl)cc2)oc2ccccc12` (stereo not drawn) [Compound 50, N-(4-chlorobenzyl)-N,2-dimethyl-1-(3-methylbenzofuran-2-carbonyl)azetidine-2-carboxamide], the concentration for half-maximal inhibition (IC50) at GPR43 [1] and at GPR43 [2] was above 1000 nM each time.
For `Cc1cc(C)cc(CC(=O)N2CCC2(C)C(=O)N(CCC(N)=O)Cc2ccc(Cl)cc2)c1` (stereo not drawn) [Compound 71, 1-[2-(3,5-Dimethyl-phenyl)-acetyl]-2-methyl-azetidine-2-carboxylic acid (2-carbamoyl-ethyl)-(4-chloro-benzyl)-amide], the half-maximal inhibitory concentration (IC50) on GPR43 [1] was above 1000 nM; at GPR43 [2], 501 to 1000 nM.
`Cc1ccccc1-c1ccc(CC(=O)N2CCC2(C)C(=O)N(C)Cc2ccc(Cl)cc2)cc1` (stereo not drawn) [Compound 25, 2-Methyl-1-[2-(2′-methyl-biphenyl-4-yl)-acetyl]-azetidine-2-carboxylic acid (4-chloro-benzyl)-methyl-amide]: the half-maximal inhibitory concentration (IC50) on GPR43 [1] and on GPR43 [2] was above 1000 nM in each case.
As for `CN(Cc1ccc(Cl)cc1)C(=O)C1(C)CCN1C(=O)Cc1ccc(F)c(F)c1` (stereo not drawn) [Compound 12, 1-[2-(3,4-Difluoro-phenyl)-acetyl]-2-methyl-azetidine-2-carboxylic acid (4-chloro-benzyl)-methyl-amide], the IC50 on GPR43 [1] and at GPR43 [2] was above 1000 nM in each case.
For `Cc1ccc(CN(C)C(=O)C2(C)CCN2C(=O)Cc2cc(C)cc(C)c2)cc1` (stereo not drawn) [Compound 6, 1-[2-(3,5-Dimethyl-phenyl)-acetyl]-2-methyl-azetidine-2-carboxylic acid methyl-(4-methyl-benzyl)-amide], the half-inhibitory concentration (IC50) was 501 to 1000 nM at GPR43 [1] and above 1000 nM on GPR43 [2].
Taken in the same sequence, the figures for `Cc1cc(C)cc(CC(=O)N2CCC2(C)C(=O)N(C)Cc2ccc(C(F)(F)F)cc2)c1` (stereo not drawn) [Compound 7, 1-[2-(3,5-Dimethyl-phenyl)-acetyl]-2-methyl-azetidine-2-carboxylic acid methyl-(4-trifluoromethyl-benzyl)-amide] were 101 to 500 nM and 101 to 500 nM.

By IC50 is commonly meant the concentration at which inhibition is half-maximal.

For the origin of these results see US8759334B2, “Compounds useful for the treatment of metabolic and inflammatory diseases” (Galapagos NV, priority 2011, dated 2014).
